{
  "source": "paper PMC11073699",
  "about": "“Odorant receptors for floral- and plant-derived volatiles in the yellow fever mosquito, Aedes aegypti (Diptera: Culicidae)” (PLOS ONE, 2024)",
  "key": {"AaegOR13": {"biological_target": "T1, AaegOR13 (Aedes aegypti, UniProt Q16Z13)", "T1 sequence (Q16Z13 1-389)": "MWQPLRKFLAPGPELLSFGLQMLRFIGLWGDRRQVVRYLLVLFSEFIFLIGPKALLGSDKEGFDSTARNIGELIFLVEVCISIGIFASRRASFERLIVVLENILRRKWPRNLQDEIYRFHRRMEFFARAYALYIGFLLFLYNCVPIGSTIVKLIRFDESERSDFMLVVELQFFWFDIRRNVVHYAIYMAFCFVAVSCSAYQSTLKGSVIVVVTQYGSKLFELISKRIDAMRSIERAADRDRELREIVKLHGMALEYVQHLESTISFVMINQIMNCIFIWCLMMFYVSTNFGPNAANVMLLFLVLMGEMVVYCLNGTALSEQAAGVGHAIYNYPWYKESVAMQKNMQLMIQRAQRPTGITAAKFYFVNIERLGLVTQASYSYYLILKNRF", "T1 sequence (Q178U6 1-478 partner)": "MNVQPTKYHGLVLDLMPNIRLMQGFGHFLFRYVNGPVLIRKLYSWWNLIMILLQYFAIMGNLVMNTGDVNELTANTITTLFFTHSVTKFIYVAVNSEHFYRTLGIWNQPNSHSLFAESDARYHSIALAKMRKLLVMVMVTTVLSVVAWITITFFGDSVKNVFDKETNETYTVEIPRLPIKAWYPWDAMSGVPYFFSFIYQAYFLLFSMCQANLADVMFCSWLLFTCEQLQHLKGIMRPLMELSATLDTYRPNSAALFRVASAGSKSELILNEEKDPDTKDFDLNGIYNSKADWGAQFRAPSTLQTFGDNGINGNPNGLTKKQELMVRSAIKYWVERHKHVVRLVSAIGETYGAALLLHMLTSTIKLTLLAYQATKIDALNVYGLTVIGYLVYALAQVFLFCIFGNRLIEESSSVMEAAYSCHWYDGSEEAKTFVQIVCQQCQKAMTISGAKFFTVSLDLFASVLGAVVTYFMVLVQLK", "experiment": "Two-electrode voltage clamp of Xenopus laevis oocytes expressing AaegOR13/Orco (blends, unitary compounds, concentration-response)", "assay_type": "cell-based", "conditions": "unitary compounds; for Raw data (Responses in nA), unitary compounds of Indoles 1, Alcohols 1, Alcohols 3 / Normalized response, unitary compounds of Indoles 1, Alcohols 1, Alcohols 3: individual oocytes 1-7; for Normalized response, unitary compounds, Average: average of oocytes 1-7; for Normalized response, unitary compounds of Indoles 1, Alcohols 1, Alcohols 3: normalized per oocyte", "source_text": "(§1) The coding regions of ten AaegOR genes of interest (S3 File) and AaegOrco were synthesized by Twist Bioscience (San Francisco, CA, USA) and cloned into the pENTR plasmid. The Gateway LR directional cloning system (Invitrogen Corp., Carlsbad, CA, USA) was utilized to subclone AaegOR coding regions into the pSP64t-RFA oocyte expression plasmid. Plasmids were purified using the GeneJet Plasmid Miniprep Kit (ThermoFisher Scientific, Waltham, MA, USA). Purified plasmids were sequenced in both directions to confirm coding regions.\n(§2) Chemical compounds (S6 File) used in the deorphanization of AaegORs were purchased from Acros Organics (Morris, NJ, USA), Alfa Aesar (Ward Hill, MA, USA), and ThermoFisher Scientific (Waltham, MA, USA) at the highest purity available. Compounds were stored as 1M stocks in 100% DMSO. Serial dilutions of each compound were prepared in 10% DMSO and blended by chemical class.\n(§3) pSP64t-RFA: AaegOR clones were linearized using Xbal, and cRNAs were synthesized using the mMESSAGE mMACHINE ® SP6 kit (Life Technologies, Carlsbad, CA, USA). Xenopus laevis stage V-VII oocytes purchased from Xenopus1 (Dexter, MI, USA) were stored at 18°C in Incubation medium (ND96 96 with 5% dialyzed horse serum, 50μg/mL gentamycin, 100μg/mL streptomycin, 100μg/mL penicillin, and 550μg/mL sodium pyruvate). 30nL of cRNA was injected into multiple oocytes using a microinjection syringe pump (World Precision Instruments, Sarasota, FL, USA) maintained at 18°C for 48–72 hrs. Odorant blends were perfused across individual oocytes for 10–15 seconds, held at a resting membrane potential of -80 mV using an OC-725C oocyte clamp (Warner Instruments, LLC, Hamden, CT, USA). Induced currents were measured indirectly using the two-electrode voltage clamp technique (TEVC). Following each stimulus, currents were allowed to return to baseline before further stimulation. Data was captured using the Digidata 1550 B digitizer and PClamp10 software (Molecular Devices, San Jose, CA, USA). Concentration-response curves were generated by perfusing unitary odorants over oocytes at increasing concentrations from [10^-3M] to [10^-9M]. Data were analyzed using GraphPad Prism 8 (GraphPad Software Inc., La Jolla, CA, USA). At least two biological replicates were conducted at each concentration and for each compound. Data for at least seven oocytes responding to each compound was analyzed (S7 File)."}, "AaegOR31": {"biological_target": "T2, AaegOR31 (Aedes aegypti, UniProt Q16JU0)", "T2 sequence (Q16JU0 1-381)": "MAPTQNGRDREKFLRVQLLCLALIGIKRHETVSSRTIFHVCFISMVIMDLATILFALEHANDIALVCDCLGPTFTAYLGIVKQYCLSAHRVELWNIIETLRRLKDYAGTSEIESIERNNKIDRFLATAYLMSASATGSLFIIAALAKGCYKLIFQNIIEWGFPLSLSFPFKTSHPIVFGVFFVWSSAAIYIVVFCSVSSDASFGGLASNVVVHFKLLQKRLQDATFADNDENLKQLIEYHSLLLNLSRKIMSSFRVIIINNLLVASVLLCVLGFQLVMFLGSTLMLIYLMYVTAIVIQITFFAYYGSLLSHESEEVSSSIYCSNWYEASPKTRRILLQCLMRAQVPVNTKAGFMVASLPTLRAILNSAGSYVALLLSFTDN", "T2 sequence (Q178U6 1-478 partner)": "T1 sequence (Q178U6 1-478 partner)", "experiment": "Two-electrode voltage clamp of Xenopus laevis oocytes expressing AaegOR31/Orco (blends, unitary compounds, concentration-response)", "assay_type": "cell-based", "conditions": "for Raw Data (Responses in nA), Alcohols 1 unitary compounds / Raw Data (Responses in nA), concentration-response / Normalized response, Average, Alcohols 1 unitary compounds / Normalized response, Alcohols 1 unitary compounds: AaegOR31; for Raw Data (Responses in nA), Alcohols 1 unitary compounds / Normalized response, Average, Alcohols 1 unitary compounds / Normalized response, Alcohols 1 unitary compounds: compounds of blend Alcohols 1; for Raw Data (Responses in nA), Alcohols 1 unitary compounds / Normalized response, Alcohols 1 unitary compounds: individual oocytes (Oocyte 1-8); for Raw Data (Responses in nA), concentration-response: individual oocytes (Oocyte 1-10); for Normalized response, Average, Alcohols 1 unitary compounds: average of 8 oocytes; for Normalized response, Alcohols 1 unitary compounds: normalized to the strongest compound per oocyte", "source_text": "as §1, §2, §3"}},
  "note": "“And” between values parts separate entries of the source, which are not always exact repeats. Identical values can stand only once.",
  "data": [
    {"molecule": "CC(C)=CCC/C(C)=C/CC/C(C)=C/CO", "note": "[farnesol]", "values": [
      {"measurement": "Raw data (Responses in nA), unitary compounds of Indoles 1, Alcohols 1, Alcohols 3", "setting": "AaegOR13", "value": 0.0, "unit": "nA"},
      {"measurement": "EC50", "setting": "AaegOR31; AaegOR31/Orco expressing oocytes, TEVC, concentration-response of normalized current", "value": 14.3, "unit": "µM"},
      {"measurement": "Raw Data (Responses in nA), Alcohols 1 unitary compounds", "setting": "AaegOR31", "value": "170.0 nA and 40.0 nA and 50.0 nA and 120.0 nA and 340.0 nA and 75.0 nA and 80.0 nA and 270.0 nA"},
      {"measurement": "Raw Data (Responses in nA), concentration-response", "setting": "AaegOR31; concentration 1e-7 M", "value": "0.0 nA (4×) and 20.0 nA and 30.0 nA (2×) and 10.0 nA (2×) and 5.0 nA"},
      {"measurement": "Raw Data (Responses in nA), concentration-response", "setting": "AaegOR31; concentration 5e-7 M", "value": "5.0 nA (3×) and 10.0 nA (4×) and 20.0 nA and 0.0 nA and 15.0 nA"},
      {"measurement": "Raw Data (Responses in nA), concentration-response", "setting": "AaegOR31; concentration 1e-6 M", "value": "20.0 nA (6×) and 0.0 nA (2×) and 10.0 nA (2×)"},
      {"measurement": "Raw Data (Responses in nA), concentration-response", "setting": "AaegOR31; concentration 5e-6 M", "value": "90.0 nA (2×) and 80.0 nA and 30.0 nA and 50.0 nA (2×) and 20.0 nA (2×) and 40.0 nA and 100.0 nA"},
      {"measurement": "Raw Data (Responses in nA), concentration-response", "setting": "AaegOR31; concentration 1e-5 M", "value": "130.0 nA (2×) and 120.0 nA (2×) and 55.0 nA and 90.0 nA and 160.0 nA and 45.0 nA and 50.0 nA and 170.0 nA"},
      {"measurement": "Raw Data (Responses in nA), concentration-response", "setting": "AaegOR31; concentration 5e-5 M", "value": "190.0 nA and 320.0 nA and 270.0 nA and 130.0 nA and 260.0 nA and 430.0 nA and 150.0 nA and 100.0 nA and 290.0 nA and 360.0 nA"},
      {"measurement": "Raw Data (Responses in nA), concentration-response", "setting": "AaegOR31; concentration 0.0001 M", "value": "160.0 nA and 440.0 nA and 280.0 nA and 210.0 nA and 270.0 nA and 400.0 nA and 170.0 nA and 80.0 nA and 320.0 nA and 430.0 nA"}
    ]},
    {"molecule": "OCC(O)CO", "note": "[glycerol]", "values": [
      {"measurement": "Raw data (Responses in nA), unitary compounds of Indoles 1, Alcohols 1, Alcohols 3", "setting": "AaegOR13", "value": 0.0, "unit": "nA"},
      {"measurement": "Raw Data (Responses in nA), Alcohols 1 unitary compounds", "setting": "AaegOR31", "value": "5.0 nA (2×) and 0.0 nA (6×)"}
    ]},
    {"molecule": "Cc1cccc(O)c1", "note": "[m-cresol]", "values": [
      {"measurement": "Raw data (Responses in nA), unitary compounds of Indoles 1, Alcohols 1, Alcohols 3", "setting": "AaegOR13", "value": "0.0 nA and 75.0 nA and 25.0 nA (2×) and 40.0 nA (2×) and 45.0 nA"},
      {"measurement": "Raw Data (Responses in nA), Alcohols 1 unitary compounds", "setting": "AaegOR31", "value": "15.0 nA and 0.0 nA (7×)"}
    ]},
    {"molecule": "CO", "note": "[methanol]", "values": [
      {"measurement": "Normalized response, unitary compounds, Average", "setting": "AaegOR13", "value": 0.0},
      {"measurement": "Raw data (Responses in nA), unitary compounds of Indoles 1, Alcohols 1, Alcohols 3", "setting": "AaegOR13", "value": 0.0, "unit": "nA"},
      {"measurement": "Normalized response, unitary compounds of Indoles 1, Alcohols 1, Alcohols 3", "setting": "AaegOR13", "value": 0.0},
      {"measurement": "Normalized response, Average, Alcohols 1 unitary compounds", "setting": "AaegOR31", "value": 0.0},
      {"measurement": "Raw Data (Responses in nA), Alcohols 1 unitary compounds", "setting": "AaegOR31", "value": 0.0, "unit": "nA"},
      {"measurement": "Normalized response, Alcohols 1 unitary compounds", "setting": "AaegOR31", "value": 0.0}
    ]},
    {"molecule": "CCCCO", "note": "[n-butanol]", "values": [
      {"measurement": "Normalized response, unitary compounds, Average", "setting": "AaegOR13", "value": 0.0},
      {"measurement": "Raw data (Responses in nA), unitary compounds of Indoles 1, Alcohols 1, Alcohols 3", "setting": "AaegOR13", "value": 0.0, "unit": "nA"},
      {"measurement": "Normalized response, unitary compounds of Indoles 1, Alcohols 1, Alcohols 3", "setting": "AaegOR13", "value": 0.0},
      {"measurement": "Normalized response, Average, Alcohols 1 unitary compounds", "setting": "AaegOR31", "value": 0.0},
      {"measurement": "Raw Data (Responses in nA), Alcohols 1 unitary compounds", "setting": "AaegOR31", "value": 0.0, "unit": "nA"},
      {"measurement": "Normalized response, Alcohols 1 unitary compounds", "setting": "AaegOR31", "value": 0.0}
    ]},
    {"molecule": "Cc1ccccc1O", "note": "[o-cresol]", "values": [
      {"measurement": "Raw data (Responses in nA), unitary compounds of Indoles 1, Alcohols 1, Alcohols 3", "setting": "AaegOR13", "value": "0.0 nA and 110.0 nA and 25.0 nA and 35.0 nA and 50.0 nA and 45.0 nA and 15.0 nA"},
      {"measurement": "Raw Data (Responses in nA), Alcohols 1 unitary compounds", "setting": "AaegOR31", "value": 0.0, "unit": "nA"}
    ]},
    {"molecule": "Cc1ccc(O)cc1", "note": "[p-cresol]", "values": [
      {"measurement": "Raw data (Responses in nA), unitary compounds of Indoles 1, Alcohols 1, Alcohols 3", "setting": "AaegOR13", "value": "20.0 nA and 290.0 nA and 85.0 nA and 140.0 nA and 165.0 nA and 135.0 nA and 90.0 nA"},
      {"measurement": "Raw Data (Responses in nA), Alcohols 1 unitary compounds", "setting": "AaegOR31", "value": 0.0, "unit": "nA"}
    ]}
  ]
}
